Results on 1 compound are retold here after patent publication US20240197661A1, “ORAL DOSAGE FORMS OF METHYL HYDROGEN FUMARATE AND PRODRUGS THEREOF” (Arbor Pharmaceuticals, LLC, priority 2012, published 2024).

One series relates to healthy adult subjects. The experiment in a line: safety and tolerability in single-dose food effect study. Type of series: in vivo, human. The settings on record: single 100 mg dose, fed and fasted. From the text:
Twelve healthy adult volunteers (males and females) participated in the study. All twelve subjects received […] a dosage form of Example 3, once in a fed condition and once in a fasted condition, with a two-week washout between treatments. The fasted dosing was achieved by dosing the subject following an overnight fast while the fed dosing was achieved by dosing the subject after consuming a high fat-content breakfast.
All 12 subjects completed the dosing period. All adverse events were mild.

The test system of series [1] is subjects with moderate-to-severe plaque psoriasis. As to the kind of experiment: 24-week placebo-controlled efficacy study in plaque psoriasis. Type of series: in vivo, human. The settings on record: for patients achieving PASI-75 / patients achieving an IGA score of 0 or 1: week 24. As for the experimental part: (§1) Study subjects were enrolled at 76 US sites. Patients had chronic plaque psoriasis for more than 6 months, PASI (Psoriasis Area and Severity Index) scores ≥12, IGA (Investigator's Global Assessment) Scores ≥3, and psoriasis BSA (Body Surface Area) ≥10%. Altogether 426 subjects were randomized in a 1:1:1:1 ratio into 4 dose arms: 400 mg QD, 400 mg BID, 600 mg BID, and placebo. A 5-week titration phase was followed by 19 weeks of treatment. The co-primary end points at week 24 were the percentages of patients achieving an at least 75% reduction of their baseline PASI (“PASI-75”) and an IGA score of ‘clear’ or ‘almost clear’ (i.e., 0 or 1).

Series [2] can be described thus: degradation of MHF prodrugs in pH 6.0 phosphate buffer with sodium acetate.
Experimental: Each prodrug was placed in a pH 6.0 phosphate buffer with multiple concentrations of sodium acetate (0.0 M, 0.1 M, 0.5 M, 2.0 M, 3.0 M, and 4.0 M) at 40° C. The presence of prodrug was measured over time up to 42 hours. The rate of prodrug degradation can be expressed according to the following formula: In (A)=In (A0)−Kobs●t, wherein A is the prodrug concentration, A0 is the prodrug concentration at time zero and Kobs is the observed slope of the curve plotting In (A) versus time (t). Thus, the higher the Kobs, the more quickly the prodrug is degrading.
For series [3], the system named is subjects with moderate-to-severe plaque psoriasis. The experiment in a line: safety (adverse events) in 24-week plaque psoriasis study. Type of series: in vivo, human. As for the experimental part: as §1

Each structure is given as a SMILES string.

On to `CCN(CC)C(=O)COC(=O)/C=C/C(=O)OC` [PPC-06, (N,N-Diethylcarbamoyl)methyl methyl (2E)but-2-ene-1,4-dioate], for which, in the series with healthy adult subjects, the “severity of adverse events” value is recorded as “mild”. In the series on healthy adult subjects, the “tolerability during the trial” value is given as “well tolerated”. In addition, the “patients achieving PASI-75” value stood at 47.2% in series [1] (400 mg BID, p=0.002 vs placebo); 39.7% in series [1] (400 mg QD, p=0.004 vs placebo); 44.3% in series [1] (600 mg BID, p=0.004 vs placebo). Moreover, the “patients achieving an IGA score of 0 or 1” value in series [1] (400 mg BID, p=0.021 vs placebo) stood at 41.4%; in series [1] (400 mg QD, p=0.044 vs placebo), 35.7%; in series [1] (600 mg BID, p=0.010 vs placebo), 44.4%. Also, the “efficacy compared to placebo” value in series [1] (24 weeks of treatment, three dose strengths) is “significant efficacy compared to placebo”. Also, the “formation rates of both primary degradation products” value in series [2] (14.6 hour exposure, pH 6.0, 40° C., varying acetate concentration) was “increased with increasing acetate concentration”. Moreover, in series [2] (pH 6.0, 40° C.), the “effect of acetate on degradation rate compared to DMF” value is “more pronounced”. Moreover, the “degradation rate (Kobs) as a function of acetate concentration” value in series [2] (pH 6.0 phosphate buffer, sodium acetate 0.0-4.0 M, 40° C., up to 42 hours) was “increased with increasing concentrations of acetate”. Also, the “patients reporting diarrhea (TEAE)” value in series [3] (400 mg BID) was determined as 18%; in series [3] (400 mg QD), 7%; in series [3] (600 mg BID) it was 23%. Further, the flushing reported in series [3] (PPC-06 treatment arms) is 1-2%. Also, the “subjects developing CTCAE grade 3 lymphopenia” value in series [3] (during treatment, recovered on discontinuation) was “Two”. In series [3] (in vivo), the “new or unexpected adverse events compared to DMF drugs” value is “No new or unexpected adverse events”. The “severity of most cases of diarrhea” value in series [3] (in vivo) is “mild to moderate”. Also, in series [3] (overall PPC-06 population), the “nausea and abdominal pain reported” value was “less than 10%”.
